Experimental data taken from PMC4129439 (eLife, 2014).
Substitutions are numbered along the chain they refer to. Several values for one entry are separate records, joined by “and”; a condition that tells them apart may be missing. Identical values can stand only once. Like-named read-outs stand apart in the source and are kept apart here. Values belong to the molecule of their own block, whether it stands above or below them.

What was measured:
mSAA3-W71A = molecular target: T1, mSAA3-W71A (Mus musculus, UniProt P04918, W71A); assay: Retinol binding assay, mSAA3-W71A mutant
T1 construct: hexa-histidine tag followed by thrombin cleavage site (N, cleaved yes); made in house; host or cells: Escherichia coli BL21-CodonPlus (DE3)-RILP
T1 sequence (P04918 19-122 W71A): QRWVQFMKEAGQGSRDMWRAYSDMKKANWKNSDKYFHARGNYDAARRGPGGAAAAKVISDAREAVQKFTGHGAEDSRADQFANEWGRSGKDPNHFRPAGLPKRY
Method: The mSAA3-W71A mutant was generated using the QuickChange II site-directed mutagenesis kit (Agilent Technologies, Santa Clara, CA).
(§1) Steady state fluorescence was measured using a QuantaMaster 40 spectrofluorometer (Photon Technology International, Edison, NJ) and FelixGX software program. […] For retinoic acid and other retinoids, samples were excited at 296 nm and tryptophan quenching was monitored by emission at 334 nm. Experiments on mSAA1 and mSAA3 were done in 25 mM Tris pH 8.0, 100 mM NaCl, and 4 mM decyl maltopyranoside (DM). Experiments with hSAA1, human ApoA1, and human transferrin were conducted in PBS. […] All assays were done using a protein concentration of 0.5 μM.

mouse SAA3 (mSAA3) = molecular target: T2, mouse SAA3 (mSAA3) (Mus musculus, UniProt P04918); assay: Fluorometric retinoid binding assay, mSAA3
T2 construct: hexa-histidine tag followed by thrombin cleavage site (N, cleaved yes); made in house; host or cells: Escherichia coli BL21-CodonPlus (DE3)-RILP
T2 sequence (P04918 19-122): T1 sequence (P04918 19-122 W71A) with A53W
Method: (§2) Retinoic acid lacks intrinsic fluorescence but can quench inherent protein fluorescence due to energy transfer from tryptophan residues ([Cogan et al., 1976]). We therefore measured retinoic acid binding using a modified fluorescence assay that monitored quenching of protein fluorescence (Figure 2C).
as §1

mouse SAA1 (mSAA1) = molecular target: T3, mouse SAA1 (mSAA1) (Mus musculus, UniProt P05366); assay: Fluorometric retinoid binding assay, mSAA1; conditions: for binding (in words): tryptophan fluorescence quenching, excitation 296 nm, emission 334 nm
T3 construct: hexa-histidine tag followed by thrombin cleavage site (N, cleaved yes); made in house; host or cells: Escherichia coli BL21-CodonPlus (DE3)-RILP
T3 sequence (P05366 20-122): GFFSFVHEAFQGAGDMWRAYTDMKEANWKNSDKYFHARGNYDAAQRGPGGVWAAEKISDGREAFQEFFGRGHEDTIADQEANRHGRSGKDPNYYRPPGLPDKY
Method: as §2, §1

[1] = tested on: SAA1 and 2 expression in HepG2 cells; assay: SAA expression in HepG2 cells by Q-PCR; format: cell-based, human
Excerpt: (§3) Figure 1. SAA expression requires dietary vitamin A. (A) Mice were maintained on a normal (Vit. A+) diet or a vitamin A-deficient (Vit. A−) diet as in Figure 1—figure supplement 1. N = 3–5 mice per condition. (B) Ileal sections were stained with anti-SAA antibody (‘Materials and methods’) and anti-rabbit IgG-Cy3 (red), and counterstained with DAPI (blue). Scale bar = 50 µm. (C) Q-PCR determination of Saa expression levels in livers of mice on a normal or vitamin A-deficient diet. N = 5 mice/condition. (D) Liver sections were stained with anti-SAA antibody and anti-rabbit IgG-Cy3 (red), and counterstained with DAPI (blue). Scale bars = 50 µm. (E and F) Analysis of SAA expression in HepG2 cells. […] SAA expression was determined by Q-PCR. N = 3 independent experiments. Mean ± SEM is plotted. nd, not detected. *p < 0.05; **p < 0.01; ***p < 0.001. p values were determined by two-tailed Student's t test. DOI: http://dx.doi.org/10.7554/eLife.03206.004 Figure 1—figure supplement 1. […] Saa transcript abundance was determined by Q-PCR. […] Saa transcript abundance was determined by Q-PCR. […] Mean ± SEM is plotted. *p < 0.05, **p < 0.01. p values were determined by the Mann–Whitney test in (A) and two-tailed Student's t test in (B). […]

[2] = molecular target: T4, recombinant human SAA1 (hSAA1) (Homo sapiens, UniProt P0DJI8, D78N/H89R); assay: Fluorometric retinoid binding assay, hSAA1; conditions: for Kd: PBS, 0.5 μM protein
T4 construct: corresponding to human apo-SAA1α except for the presence of an N-terminal methionine; purchased PeproTech (Rocky Hill, NJ)
T4 sequence (P0DJI8 19-122 D78N/H89R): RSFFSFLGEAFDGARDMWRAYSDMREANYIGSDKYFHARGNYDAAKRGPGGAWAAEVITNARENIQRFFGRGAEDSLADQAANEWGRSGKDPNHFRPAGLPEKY
Method: as §2, §1

[3] = tested on: intestinal Saa1 and Saa2 expression; assay: Saa expression in small intestinal explants by Q-PCR; format: cell-based, mouse; conditions: 1 µM retinol in 0.1% DMSO, ileum explants, 6 hr
hSAA1, mSAA1, and mSAA3 = assay: Cholesterol competition of retinol binding to SAAs; conditions: 10 μM cholesterol, saturating retinol, fluorescence quenching at 334 nm
Excerpt: Figure 2. […] Plots are representative of five independent experiments. (C) Retinoic acid lacks intrinsic fluorescence, but can quench intrinsic protein fluorescence due to energy transfer from tryptophan residues ([Cogan et al., 1976]). All-trans-retinoic acid was titrated into mSAA3 and fluorescence quenching was monitored following excitation at 296 nm. The chemical structure of retinoic acid is shown. (D) All-trans-retinoic acid was titrated into hSAA1, mSAA1, mSAA3, hTfr, and ApoA1. Fluorescence emission was monitored at 334 nm with excitation at 296 nm as in (C). Plots are representative of three independent experiments. […] Additional ligand binding measurements are provided in Figure 2—figure supplements 1 and 2. DOI: http://dx.doi.org/10.7554/eLife.03206.007 Figure 2—figure supplement 1. […] DOI: http://dx.doi.org/10.7554/eLife.03206.008 [drawing 3] Figure 2—figure supplement 2. Additional ligand binding studies on human and mouse SAAs. […] Plots are representative of three independent experiments.
Steady state fluorescence was measured using a QuantaMaster 40 spectrofluorometer (Photon Technology International, Edison, NJ) and FelixGX software program. […] For retinoic acid and other retinoids, samples were excited at 296 nm and tryptophan quenching was monitored by emission at 334 nm. […]

[4] = tested on: liver Saa1 and Saa2 expression; assay: In vivo retinoic acid reconstitution, liver Saa expression by Q-PCR; parameters: species or system mouse; conditions: vitamin A-depleted mice, intraperitoneal, daily for three days
Excerpt: as §3

[5] = molecular target: human retinol binding protein 4 (hRBP4) (Homo sapiens, UniProt P02753); assay: Fluorescence binding assay, hRBP4; conditions: fluorescence quenching assay as in Figure 2
[6] = molecular target: the molecule itself; assay: crystal structure; selenomethionyl mSAA3, space group P6(2), two subunits in the asymmetric unit, SAD phasing, 2 Å; 75-80% MPD, 0.1 M sodium acetate pH 4.5, 20°C; quaternary structure by PDBePISA
[7] = tryptophan fluorescence quenching, excitation 296 nm, emission 334 nm
[8] = tryptophan fluorescence quenching, excitation 296 nm, emission 334 nm, 0.5 μM protein

Molecule: CCCCCCCCCCCCCCCC(=O)OC/C=C(C)/C=C/C=C(C)/C=C/C1=C(C)CCCC1(C)C [retinyl palmitate]
- binding (in words) (mouse SAA3 (mSAA3); [7]): bound weakly
- binding (in words) (mouse SAA1 (mSAA1)): bound weakly
- binding (in words) [2, 7]: bound weakly

Molecule: CC(C)CCC[C@@H](C)[C@H]1CC[C@H]2[C@@H]3CC=C4C[C@@H](O)CC[C@]4(C)[C@H]3CC[C@]12C [cholesterol]
- competitive inhibition of retinol binding (hSAA1, mSAA1, and mSAA3): unable to competitively inhibit retinol binding

Molecule: CC(=O)OC/C=C(C)/C=C/C=C(C)/C=C/C1=C(C)CCCC1(C)C [retinyl acetate]
- binding (in words) (mouse SAA1 (mSAA1)): weak binding
- Kd [2, 7]: 497 nM and 347 nM

Molecule: CC1=C(/C=C/C(C)=C/C=C/C(C)=C/C=C/C=C(C)/C=C/C=C(C)/C=C/C2=C(C)CCCC2(C)C)C(C)(C)CCC1 [β-carotene]
- Kd (mouse SAA3 (mSAA3); [8]): 159 nM
- binding (in words) (mouse SAA1 (mSAA1)): weak binding
- Kd [2, 7]: 347 nM and 497 nM

B1: mouse serum amyloid A3 (mSAA3) (natural protein, UniProt P04918 19-122, looked up)
chain: T1 sequence (P04918 19-122 W71A) with A53W
notes: cloned into pET28(a)+ between NdeI and BamHI; monomer is 12.2 kDa; The crystal used for the structure was selenomethionyl-derivatised (grown in defined media with selenomethionine); SEC and cross-linking used the native protein; A few vector residues probably remain at the N-terminus after thrombin cleavage (surmise); also called mouse SAA3; not shown: His6, N-terminal, cleaved
- stoichiometry N [6]: 4

Continued, in another order:

- Kd (mSAA3-W71A): 496 ± 127 nM
- Kd (mouse SAA3 (mSAA3)): 145 nM
- Kd (mouse SAA1 (mSAA1)): 169 nM
- Kd ([2]; all-trans-retinol titration, retinol fluorescence, excitation 348 nm, emission 460 nm): 259 nM
Molecule: CC1=C(/C=C/C(C)=C/C=C/C(C)=C/CO)C(C)(C)CCC1 [retinol]
- expression of SAA1 and 2 ([1]; 1 μM retinol in the presence of IL-1β and IL-6, retinoid-free medium): enhanced expression
- expression of intestinal Saa1 and Saa2 [3]: elevated expression

- Kd (mouse SAA3 (mSAA3); [8]): 224 nM
- binding (in words) (mouse SAA1 (mSAA1)): weak binding
- Kd [5]: 139 ± 40 nM
- Kd [2, 7]: 268 nM
Molecule: CC1=C(/C=C/C(C)=C/C=C/C(C)=C/C(=O)O)C(C)(C)CCC1 [retinoic acid]
- expression of liver Saa1 and Saa2 [4]: elevated expression
- expression of SAA1 and 2 ([1]; 100 nM retinoic acid in the presence of IL-1β and IL-6, retinoid-free medium): enhanced expression
